Two compounds from patent EP3046573B1, “AMYLIN ANALOGUES” (Zealand Pharma A/S, priority 2013, dated 2015) can be followed below.

Data set [1] deals with T1, human calcitonin receptor (hCTR2) (Homo sapiens, UniProt P30988).
T1 construct: expressed in transfected cells
T1 sequence (P30988 25-474): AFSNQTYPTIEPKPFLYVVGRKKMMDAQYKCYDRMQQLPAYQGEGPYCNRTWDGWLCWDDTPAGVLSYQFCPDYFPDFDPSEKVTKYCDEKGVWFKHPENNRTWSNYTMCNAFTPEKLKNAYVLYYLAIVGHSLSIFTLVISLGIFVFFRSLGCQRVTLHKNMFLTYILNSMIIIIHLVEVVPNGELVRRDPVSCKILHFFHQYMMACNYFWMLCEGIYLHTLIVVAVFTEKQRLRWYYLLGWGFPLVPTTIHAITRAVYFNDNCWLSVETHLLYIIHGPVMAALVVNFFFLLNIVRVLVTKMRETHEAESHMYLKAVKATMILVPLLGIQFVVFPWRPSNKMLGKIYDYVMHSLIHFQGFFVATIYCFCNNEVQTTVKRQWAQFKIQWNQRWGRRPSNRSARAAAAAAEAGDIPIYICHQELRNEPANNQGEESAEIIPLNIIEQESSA
As to the kind of experiment: hCTR2 assay: induction of cAMP (AlphaScreen cAMP Assay kit) in COS7 cells expressing hCTR2. Format: cell-based. The method in brief: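 Stable RAMP-naive COS7 clone expressing hCTR2 was stimulated with increasing peptide concentrations in Tyrode buffer (pH 7.4) with 100 µM IBMX and 0.1% casein for 15 min at 37° C. Cells were lysed and cAMP measured by AlphaScreen. EC50 and efficacy relative to pramlintide came from 4PL curve fits.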
(In general: In Alpha technology, singlet oxygen from a donor bead excites a nearby acceptor bead.)

Data set [2] in a line: Solubility assessment (turbidity absorbance at 325 nm). The conditions noted are these: stock 2 mg/ml diluted 1:1, ambient temperature (typically 25°C), n=1; for Solubility, Acetate buffer pH 4: 100 mM acetate buffer pH 4.0; for Solubility, Acetate buffer pH 5: 100 mM acetate buffer pH 5.0; for Solubility, Histidine buffer pH 6: 100 mM histidine buffer pH 6.0; for Solubility, Histidine buffer pH 7: 100 mM histidine buffer pH 7.0; for Solubility, Phosphate buffer pH 6: 100 mM phosphate buffer pH 6.0; for Solubility, Phosphate buffer pH 7: 100 mM phosphate buffer pH 7.0; for Solubility, Phosphate buffer pH 7.5: 100 mM phosphate buffer pH7.5. Format: physicochemical. The essentials: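 Peptide stock (2 mg/ml, water pH 2.5) diluted 1:1 into 100 mM acetate (pH 4.0, 5.0), histidine (pH 6.0, 7.0) or phosphate (pH 6.0–7.5) buffer; absorbance at 325 nm read at about 25°C, n=1. A325 ≤ 0.02 taken as solubility ≥ 1 mg/ml.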

pEC50: −log10 of the molar value. Read-outs that look alike come from different tables or passages of the source. Numbered stars: 1 amine (or outer) side, 2 acyl side, 3 side chain; on linkers, the order of the positions; unused ones are H or OH. Bridge positions count the residues as written; N and C are the ends. Square brackets hold non-standard residues; d marks the D form. Peptide text beside a SMILES is read from it. * marks the point of attachment. C20 diacid = O=C(O)CCCCCCCCCCCCCCCCCCC(=O)*; γGlu = O=C(O)[C@H](CCC(=O)[*:2])N[*:1]; NMeI = CC[C@H](C)[C@H](NC)C(=O)O; Sar = CNCC(=O)O

As usually defined, the pEC50 is the negative decadic logarithm of the EC50, by convention in mol/L. Turning to `CC[C@H](C)[C@@H](C(=O)N[C@@H](CC(C)C)C(=O)N[C@@H](CO)C(=O)N[C@@H](CO)C(=O)N[C@H](C(=O)N[C@@H](CC(N)=O)C(=O)N[C@H](C(=O)NCC(=O)N[C@@H](CO)C(=O)N[C@@H](CC(N)=O)C(=O)N[C@H](C(=O)N1CCC[C@H]1C(N)=O)[C@@H](C)O)C(C)C)[C@@H](C)O)N(C)C(=O)[C@H](C)NC(=O)CN(C)C(=O)[C@H](Cc1ccccc1)NC(=O)[C@H](CC(N)=O)NC(=O)[C@H](CC(N)=O)NC(=O)[C@H](CO)NC(=O)[C@H](Cc1c[nH]cn1)NC(=O)[C@H](Cc1c[nH]cn1)NC(=O)[C@H](CC(C)C)NC(=O)[C@H](Cc1ccccc1)NC(=O)[C@H](CCC(=O)O)NC(=O)[C@H](C)NC(=O)[C@H](CC(C)C)NC(=O)[C@H](CCCNC(=N)N)NC(=O)[C@H](CCC(N)=O)NC(=O)[C@@H](NC(=O)[C@H](C)NC(=O)[C@@H]1CSSC[C@H](NC(=O)[C@H](CCCNC(=N)N)NC(=O)CC[C@H](NC(=O)CCCCCCCCCCCCCCCCCCC(=O)O)C(=O)O)C(=O)N[C@@H](CC(N)=O)C(=O)N[C@@H]([C@@H](C)O)C(=O)N[C@@H](C)C(=O)N[C@@H]([C@@H](C)O)C(=O)N1)[C@@H](C)O` [Compound 45, [19CD]-isoGlu-RC()NTATC()ATQRLAEFLHHSNNF-Gly(Me)-A-Ile(Me)-LSSTNVGSNTP-NH2] ({C20 diacid-γGlu}-RCNTATCATQRLAEFLHHSNNF[Sar]A[NMeI]LSSTNVGSNTP-NH2; disulfide 2-7), the pEC50 in data set [1] is 9.85. Moreover, in data set [2], the “Solubility, Acetate buffer pH 4” value was “II (II indicates solubility ≤ 1 mg/ml)”; the “Solubility, Acetate buffer pH 5” value is reported as “II (II indicates solubility ≤ 1 mg/ml)”; the “Solubility, Histidine buffer pH 6” value is reported as “II (II indicates solubility ≤ 1 mg/ml)”; the “Solubility, Histidine buffer pH 7” value was “II (II indicates solubility ≤ 1 mg/ml)”. In addition, in data set [2], the “Solubility, Phosphate buffer pH 6” value was “II (II indicates solubility ≤ 1 mg/ml)”; the “Solubility, Phosphate buffer pH 7” value is recorded as “II (II indicates solubility ≤ 1 mg/ml)”; the “Solubility, Phosphate buffer pH 7.5” value is listed as “II (II indicates solubility ≤ 1 mg/ml)”.

Consider `CC[C@H](C)[C@@H](C(=O)N[C@@H](CC(C)C)C(=O)N[C@@H](CO)C(=O)N[C@@H](CO)C(=O)N[C@H](C(=O)N[C@@H](CC(N)=O)C(=O)N[C@H](C(=O)NCC(=O)N[C@@H](CO)C(=O)N[C@@H](CC(N)=O)C(=O)N[C@H](C(=O)N1CCC[C@H]1C(N)=O)[C@@H](C)O)C(C)C)[C@@H](C)O)N(C)C(=O)CN(C)C(=O)[C@H](Cc1ccccc1)NC(=O)[C@H](CC(N)=O)NC(=O)[C@H](CC(N)=O)NC(=O)[C@H](CO)NC(=O)[C@H](Cc1c[nH]cn1)NC(=O)[C@H](Cc1c[nH]cn1)NC(=O)[C@H](CC(C)C)NC(=O)[C@H](Cc1ccccc1)NC(=O)[C@H](CCC(=O)O)NC(=O)[C@H](C)NC(=O)[C@H](CC(C)C)NC(=O)[C@H](CCCNC(=N)N)NC(=O)[C@H](CCC(N)=O)NC(=O)[C@@H](NC(=O)[C@H](C)NC(=O)[C@@H]1CSSC[C@H](NC(=O)[C@H](CCCNC(=N)N)NC(=O)CC[C@H](NC(=O)CCCCCCCCCCCCCCCCCCC(=O)O)C(=O)O)C(=O)N[C@@H](CC(N)=O)C(=O)N[C@@H]([C@@H](C)O)C(=O)N[C@@H](C)C(=O)N[C@@H]([C@@H](C)O)C(=O)N1)[C@@H](C)O` [Compound 46, [19CD]-isoGlu-RC()NTATC()ATQRLAEFLHHSNNF-Gly(Me)-Ile(Me)-LSSTNVGSNTP-NH2] ({C20 diacid-γGlu}-RCNTATCATQRLAEFLHHSNNF[Sar][NMeI]LSSTNVGSNTP-NH2; disulfide 2-7), for which, in data set [1] (cAMP induction in COS7 cells expressing hCTR2, average of a minimum of 3 determinations, read-out: hCTR2 EC50), the pEC50 is 9.82. In data set [2], the “Solubility, Acetate buffer pH 4” value is on record as “II (II indicates solubility ≤ 1 mg/ml)”; the “Solubility, Acetate buffer pH 5” value was “II (II indicates solubility ≤ 1 mg/ml)”; the “Solubility, Histidine buffer pH 6” value was “II (II indicates solubility ≤ 1 mg/ml)”; the “Solubility, Histidine buffer pH 7” value is recorded as “II (II indicates solubility ≤ 1 mg/ml)”. In data set [2], the “Solubility, Phosphate buffer pH 6” value is “II (II indicates solubility ≤ 1 mg/ml)”; the “Solubility, Phosphate buffer pH 7” value is on record as “II (II indicates solubility ≤ 1 mg/ml)”; the “Solubility, Phosphate buffer pH 7.5” value is listed as “II (II indicates solubility ≤ 1 mg/ml)”.
